These results are taken from PubChem BioAssay (NCI).

Some test systems named below: OVCAR-5 ovarian; T-47D breast; SF-295 CNS; NCI-H522 lung; NCI-H226 lung; IGROV1 ovarian; 786-0 renal; HS 578T breast; SW-620 colon; MDA-MB-231 breast.
Common to all, as to assay: DTP human tumour cell line panel, 48 h

Each structure is given as a SMILES string.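 1) Cells in 96-well plates. 2) Compound, 48 h, 5 concentrations. 3) Linear interpolation between surrounding doses. 4) Unreached endpoint = highest concentration. GI50 is the concentration that inhibits growth by half. Definition used: TGI = concentration required for complete inhibition of growth.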

In general, TGI refers to the concentration giving total growth inhibition. Low values mean greater sensitivity of the cells, high ones lower sensitivity of the cells. The term GI50 denotes the concentration at which growth is held to half of that of the control.

On to `O=c1c(-c2ccc(O)cc2)coc2cc(O)cc(O)c12`, for which the TGI in the experiment on OVCAR-5 ovarian, in the experiment on T-47D breast, with SF-295 CNS, in the experiment on NCI-H522 lung, in the experiment on NCI-H226 lung and in the experiment on IGROV1 ovarian was greater than 100 µM in each case. The TGI in the experiment on 786-0 renal, in the experiment with HS 578T breast and in the experiment on SW-620 colon was greater than 100 µM in each case.

As for `CC(C)c1nccn1Cc1ccc(Cl)cc1Cl`, the TGI in the experiment on OVCAR-5 ovarian is greater than 100 µM; in the experiment with SF-295 CNS it was greater than 100 µM; with NCI-H522 lung it was 97.9 µM; in the experiment on NCI-H226 lung it was 93.5 µM; in the experiment with IGROV1 ovarian, greater than 100 µM; with 786-0 renal it was greater than 100 µM. Besides, the concentration for total growth inhibition (TGI) in the experiment on SW-620 colon and in the experiment on MDA-MB-231 breast was greater than 100 µM each time.

In the case of `C/C(=C\c1ccccc1)C(=O)NCc1ccc(C(=O)NCCc2c[nH]c3ccccc23)cc1`, the TGI in the experiment with OVCAR-5 ovarian, with T-47D breast, in the experiment with SF-295 CNS, with NCI-H522 lung, in the experiment with NCI-H226 lung and with IGROV1 ovarian was greater than 100 µM in each case. The TGI with 786-0 renal, in the experiment on SW-620 colon and in the experiment with MDA-MB-231 breast was greater than 100 µM throughout.

Regarding `CC1(C)CC2(C)OC(=N)C1(C#N)C2(C#N)C#N` (centres undefined), the TGI was found to be 27.3 µM in the experiment on OVCAR-5 ovarian; 37.7 µM in the experiment with T-47D breast; 31.5 µM in the experiment on SF-295 CNS; 8.38 µM in the experiment on NCI-H522 lung; 29.9 µM in the experiment on IGROV1 ovarian; 16.7 µM in the experiment on 786-0 renal. Moreover, the results for the total growth inhibition concentration (TGI) in the experiment with HS 578T breast, in the experiment with SW-620 colon and in the experiment with MDA-MB-231 breast were 37.7 µM, 11.1 µM and 21.2 µM, respectively.

With `CCOC(=O)CCC(C(=O)OCC)n1nnc2cc(Nc3c(C)[n+]([O-])c4ccc(Cl)cc4[n+]3[O-])ccc21` (centres undefined), the TGI in the experiment with OVCAR-5 ovarian, in the experiment on T-47D breast, with SF-295 CNS, with NCI-H522 lung, with NCI-H226 lung and in the experiment on IGROV1 ovarian was greater than 100 µM in each case. The TGI with 786-0 renal, in the experiment on HS 578T breast and in the experiment with SW-620 colon was greater than 100 µM in each case.

As for `Oc1ccc2ccccc2c1OCc1nnc(CCCCCCCCc2nnc(COc3c(O)ccc4ccccc34)o2)o1`, the concentration for total growth inhibition (TGI) in the experiment with OVCAR-5 ovarian, in the experiment on SF-295 CNS, with NCI-H522 lung, in the experiment on NCI-H226 lung, with IGROV1 ovarian and with 786-0 renal was greater than 100 µM each time. Besides, the total growth inhibition concentration (TGI) with SW-620 colon and in the experiment with MDA-MB-231 breast was greater than 100 µM each time.

On to `Cc1ccc2cnc(N)c(C#Cc3cncc(C(=O)Nc4ccc(CN5CCN(C)CC5)c(C(F)(F)F)c4)c3)c2c1`, for which the GI50 with OVCAR-5 ovarian was 0.579 µM; in the experiment on SF-295 CNS, 828 nM; in the experiment on NCI-H522 lung it was 249 nM; in the experiment on IGROV1 ovarian, 0.231 µM; in the experiment with HS 578T breast it was 274 nM; in the experiment on SW-620 colon it was 131 nM. The GI50 in the experiment on MDA-MB-231 breast was 186 nM. The TGI was 1.24 µM in the experiment on OVCAR-5 ovarian; 1.57 µM in the experiment on SF-295 CNS; 1.02 µM in the experiment with NCI-H522 lung; 0.869 µM with IGROV1 ovarian; 1.39 µM with HS 578T breast; 0.54 µM in the experiment with SW-620 colon. In the experiment with MDA-MB-231 breast, this compound returned a concentration for total growth inhibition (TGI) of 0.839 µM.

With `CC(=O)[C@H]1CCC2[C@@H]3CC=C4C(O)C(OS(=O)(=O)O)CC[C@]4(C)C3CC[C@@]21C` (some centres undefined), the concentration for total growth inhibition (TGI) in the experiment with OVCAR-5 ovarian, in the experiment on SF-295 CNS, in the experiment with NCI-H522 lung, in the experiment with NCI-H226 lung, with IGROV1 ovarian and in the experiment on SW-620 colon was greater than 100 µM throughout.

In the case of `NC1CCCCC1N.O=S(=O)([O-])CCCN1CCN(CCO)CC1.O=S(=O)([O-])CCCN1CCN(CCO)CC1.[Pt+4]`, the GI50 in the experiment on OVCAR-5 ovarian was 8.22 µM; in the experiment on SF-295 CNS, 4100 nM; in the experiment on NCI-H522 lung, 2730 nM; in the experiment with NCI-H226 lung, 5.26 µM; in the experiment on IGROV1 ovarian it was 8.14 µM; in the experiment with SW-620 colon it was 2290 nM. For the same compound, the TGI in the experiment with OVCAR-5 ovarian is greater than 38.7 µM; in the experiment on SF-295 CNS it was greater than 100 µM; in the experiment on NCI-H522 lung it was 17.9 µM; in the experiment on NCI-H226 lung, greater than 100 µM; with IGROV1 ovarian, greater than 100 µM; with SW-620 colon, 21 µM.

`Cc1cc(C)c2c(c1)CC1(Cc3c(C)cc(C)cc3C1=O)C2=O` (centres undefined): the TGI with OVCAR-5 ovarian, in the experiment on SF-295 CNS, with NCI-H522 lung, with NCI-H226 lung, in the experiment on IGROV1 ovarian and with 786-0 renal was greater than 100 µM throughout. Also, the total growth inhibition concentration (TGI) in the experiment on HS 578T breast, in the experiment with SW-620 colon and in the experiment with MDA-MB-231 breast was greater than 100 µM throughout.

For the compound `C=C(C(=O)OC)[C@H]1CC/C(C)=C/CC/C(C)=C/CC[C@@]2(C)O[C@@H]2C1`, the TGI with OVCAR-5 ovarian came to 48.2 µM; in the experiment with T-47D breast it was 44.7 µM; in the experiment with SF-295 CNS, 29.6 µM; with NCI-H522 lung, 38.5 µM; in the experiment on NCI-H226 lung, 44.4 µM; in the experiment with IGROV1 ovarian it was 31.5 µM. The TGI in the experiment on 786-0 renal came to 29.2 µM; in the experiment on SW-620 colon, 37.2 µM; with MDA-MB-231 breast, 33.6 µM.

Turning to `COc1cc(S(=O)(=O)N/N=C/c2cc(Br)c(O)c(OC)c2)c(OC)cc1NC(C)=O`, the TGI in the experiment on OVCAR-5 ovarian is greater than 100 µM; in the experiment on T-47D breast it was greater than 100 µM; in the experiment on SF-295 CNS it was greater than 100 µM; with NCI-H226 lung, greater than 100 µM; in the experiment with IGROV1 ovarian, greater than 100 µM; in the experiment with 786-0 renal, 66.5 µM. Moreover, the TGI in the experiment with SW-620 colon and in the experiment on MDA-MB-231 breast was greater than 100 µM each time.

Turning to `CC(=O)Nc1ccc(/C=C(\NC(=O)c2ccccc2)C(=O)NNS(=O)(=O)c2ccc(C)cc2)cc1`, the TGI with OVCAR-5 ovarian, in the experiment with SF-295 CNS, with NCI-H522 lung, in the experiment on NCI-H226 lung and in the experiment on IGROV1 ovarian was greater than 100 µM in each case.

With `O=C(Nc1nc(C23CC4CC(CC(C4)C2)C3)cs1)c1cc2cc([N+](=O)[O-])ccc2oc1=O`, the TGI is greater than 100 µM with OVCAR-5 ovarian; greater than 100 µM in the experiment on SF-295 CNS; greater than 100 µM with NCI-H522 lung; greater than 100 µM in the experiment with NCI-H226 lung; greater than 100 µM with IGROV1 ovarian; 45.2 µM with 786-0 renal. In addition, the TGI with HS 578T breast was 67.9 µM; with SW-620 colon it was greater than 100 µM; in the experiment with MDA-MB-231 breast it was greater than 100 µM.
